Experimental data from ChEMBL document CHEMBL2413072, “Synthesis and in vitro anticancer studies of novel C-2 arylidene congeners of lantadenes” (2013).

Key:
Type in all cases: functional
[1] = system: NCI-H23; assay: Growth inhibition of human NCI-H23 cells by sulforhodamine B assay
[2] = system: HL-60(TB); assay: Growth inhibition of human HL-60(TB) cells by sulforhodamine B assay
[3] = system: CCRF-CEM; assay: Growth inhibition of human CCRF-CEM cells by sulforhodamine B assay
[4] = system: SK-MEL-5; assay: Growth inhibition of human SK-MEL-5 cells assessed as cell growth at 10^-8 M by sulforhodamine B assay; settings: read-out: Activity
[5] = system: LOX IMVI; assay: Growth inhibition of human LOXIMVI cells assessed as cell growth at 10^-8 M by sulforhodamine B assay; settings: read-out: Activity
[6] = system: HOP-92; assay: Growth inhibition of human HOP92 cells assessed as cell growth at 10^-8 M by sulforhodamine B assay; settings: read-out: Activity
[7] = system: RPMI-8226; assay: Growth inhibition of human RPMI8226 cells assessed as cell growth at 10^-8 M by sulforhodamine B assay; settings: read-out: Activity
[8] = Growth inhibition of human Hs 578T cells by sulforhodamine B assay
[9] = Growth inhibition of human NCI-ADR-RES cells by sulforhodamine B assay
[10] = system: OVCAR-3; assay: Growth inhibition of human OVCAR3 cells by sulforhodamine B assay
[11] = system: UACC-62; assay: Growth inhibition of human UACC62 cells by sulforhodamine B assay
[12] = system: IGROV-1; assay: Growth inhibition of human IGROV1 cells by sulforhodamine B assay
[13] = system: PC-3; assay: Growth inhibition of human PC3 cells assessed as cell growth at 10^-4 M by sulforhodamine B assay; settings: read-out: Activity
[14] = system: SN12C; assay: Growth inhibition of human SN12C cells assessed as cell growth at 10^-4 M by sulforhodamine B assay; settings: read-out: Activity
[15] = system: SK-MEL-2; assay: Growth inhibition of human SK-MEL-2 cells assessed as cell growth at 10^-4 M by sulforhodamine B assay; settings: read-out: Activity
[16] = system: Malme-3M; assay: Growth inhibition of human MALME-3M cells assessed as cell growth at 10^-4 M by sulforhodamine B assay; settings: read-out: Activity
[17] = system: SF-268; assay: Growth inhibition of human SF268 cells assessed as cell growth at 10^-4 M by sulforhodamine B assay; settings: read-out: Activity
[18] = system: NCI-H522; assay: Growth inhibition of human NCI-H522 cells assessed as cell growth at 10^-4 M by sulforhodamine B assay; settings: read-out: Activity
[19] = system: BT-549; assay: Growth inhibition of human BT549 cells assessed as cell growth at 10^-6 M by sulforhodamine B assay; settings: read-out: Activity
[20] = system: 786-0; assay: Growth inhibition of human 786-0 cells assessed as cell growth at 10^-6 M by sulforhodamine B assay; settings: read-out: Activity
[21] = system: KM12; assay: Growth inhibition of human KM12 cells assessed as cell growth at 10^-6 M by sulforhodamine B assay; settings: read-out: Activity
[22] = system: NCI-H226; assay: Growth inhibition of human NCI-H226 cells assessed as cell growth at 10^-6 M by sulforhodamine B assay; settings: read-out: Activity
[23] = system: HOP-62; assay: Growth inhibition of human HOP62 cells assessed as cell growth at 10^-6 M by sulforhodamine B assay; settings: read-out: Activity
[24] = system: SR; assay: Growth inhibition of human SR cells assessed as cell growth at 10^-6 M by sulforhodamine B assay; settings: read-out: Activity
[25] = system: MOLT-4; assay: Growth inhibition of human MOLT4 cells assessed as cell growth at 10^-6 M by sulforhodamine B assay; settings: read-out: Activity
[26] = system: ACHN; assay: Growth inhibition of human ACHN cells assessed as cell growth at 10^-7 M by sulforhodamine B assay; settings: read-out: Activity
[27] = system: UACC-257; assay: Growth inhibition of human UACC257 cells assessed as cell growth at 10^-7 M by sulforhodamine B assay; settings: read-out: Activity
[28] = system: SK-MEL-28; assay: Growth inhibition of human SK-MEL-28 cells assessed as cell growth at 10^-7 M by sulforhodamine B assay; settings: read-out: Activity
[29] = system: ACHN; assay: Growth inhibition of human ACHN cells assessed as cell growth at 10^-8 M by sulforhodamine B assay; settings: read-out: Activity
[30] = system: A498; assay: Growth inhibition of human A498 cells assessed as cell growth at 10^-8 M by sulforhodamine B assay; settings: read-out: Activity
[31] = Growth inhibition of human NCI-ADR-RES cells assessed as cell growth at 10^-8 M by sulforhodamine B assay; settings: read-out: Activity
[32] = read-out: LC50 (the source's name)
[33] = read-out: pLC50 (the source's name) (converted)

Q: Which results are given for `CC(C)=CC(=O)O[C@@H]1CC(C)(C)C[C@H]2C3=CC[C@@H]4[C@@]5(C)CCC(=O)C(C)(C)[C@@H]5CC[C@@]4(C)[C@]3(C)CC[C@@]12C(=O)O`?
A: GI50 ([1]; read-out: GI50): 3.96 µM; CC50 [1, 32]: > 100 µM; TGI ([1]; read-out: TGI): 51.9 µM; GI50 ([1]; read-out: pGI50 (converted)): 3.98 µM; CC50 [1, 33]: > 100 µM; TGI ([1]; read-out: pTGI (converted)): 52.5 µM; GI50 ([2]; read-out: GI50): 2.21 µM; CC50 [2, 32]: > 100 µM; TGI ([2]; read-out: TGI): 5.38 µM; GI50 ([2]; read-out: pGI50 (converted)): 2.19 µM; CC50 [2, 33]: > 100 µM; TGI ([2]; read-out: pTGI (converted)): 5.37 µM; GI50 ([3]; read-out: GI50): 2.14 µM; CC50 [3, 32]: > 100 µM; TGI ([3]; read-out: TGI): 22.1 µM; GI50 ([3]; read-out: pGI50 (converted)): 2.14 µM; CC50 [3, 33]: > 100 µM; TGI ([3]; read-out: pTGI (converted)): 22.4 µM; growth at 0.01 µM [4]: 99%; growth at 0.01 µM [5]: 98%; growth at 0.01 µM [6]: 97%; growth at 0.01 µM [7]: 101%; GI50 ([8]; read-out: GI50): 4.16 µM; CC50 [8, 32]: > 100 µM; TGI ([8]; read-out: TGI): 53.6 µM; GI50 ([8]; read-out: pGI50 (converted)): 4.17 µM; CC50 [8, 33]: > 100 µM; TGI ([8]; read-out: pTGI (converted)): 53.7 µM; GI50 ([9]; read-out: GI50): 3.75 µM; CC50 [9, 32]: > 100 µM; TGI ([9]; read-out: TGI): > 100 µM; GI50 ([9]; read-out: pGI50 (converted)): 3.72 µM; CC50 [9, 33]: > 100 µM; TGI ([9]; read-out: pTGI (converted)): > 100 µM; GI50 ([10]; read-out: GI50): 4.08 µM; CC50 [10, 32]: 59.1 µM; TGI ([10]; read-out: TGI): 19 µM; GI50 ([10]; read-out: pGI50 (converted)): 4.07 µM; CC50 [10, 33]: 58.9 µM; TGI ([10]; read-out: pTGI (converted)): 19.1 µM; GI50 ([11]; read-out: GI50): 2.47 µM; CC50 [11, 32]: 48.5 µM; TGI ([11]; read-out: TGI): 14.2 µM; GI50 ([11]; read-out: pGI50 (converted)): 2.45 µM; CC50 [11, 33]: 49 µM; TGI ([11]; read-out: pTGI (converted)): 14.1 µM; GI50 ([12]; read-out: GI50): 5.36 µM; CC50 [12, 32]: > 100 µM; TGI ([12]; read-out: TGI): 38.4 µM; GI50 ([12]; read-out: pGI50 (converted)): 5.37 µM; CC50 [12, 33]: > 100 µM; TGI ([12]; read-out: pTGI (converted)): 38 µM; growth at 100 µM [13]: -1%; growth at 100 µM [14]: -38%; growth at 100 µM [15]: -69%; growth at 100 µM [16]: -5%; growth at 100 µM [17]: -38%; growth at 100 µM [18]: -20%; growth at 1 µM [19]: 90%; growth at 1 µM [20]: 92%; growth at 1 µM [21]: 48%; growth at 1 µM [22]: 81%; growth at 1 µM [23]: 100%; growth at 1 µM [24]: 95%; growth at 1 µM [25]: 85%; growth at 0.1 µM [26]: 92%; growth at 0.1 µM [27]: 93%; growth at 0.1 µM [28]: 99%; growth at 0.01 µM [29]: 97%; growth at 0.01 µM [30]: 86%; growth at 0.01 µM [31]: 103%

Q: What does the source list for `C/C=C(/C)C(=O)O[C@@H]1CC(C)(C)C[C@H]2C3=CC[C@@H]4[C@@]5(C)CCC(=O)C(C)(C)[C@@H]5CC[C@@]4(C)[C@]3(C)CC[C@@]12C(=O)O` [LANTADENE A]?
A: GI50 ([1]; read-out: GI50): 4.55 µM; CC50 [1, 32]: > 100 µM; TGI ([1]; read-out: TGI): > 100 µM; GI50 ([1]; read-out: pGI50 (converted)): 4.57 µM; CC50 [1, 33]: > 100 µM; TGI ([1]; read-out: pTGI (converted)): > 100 µM; GI50 ([2]; read-out: GI50): 1.87 µM; CC50 [2, 32]: > 100 µM; TGI ([2]; read-out: TGI): 5.26 µM; GI50 ([2]; read-out: pGI50 (converted)): 1.86 µM; CC50 [2, 33]: > 100 µM; TGI ([2]; read-out: pTGI (converted)): 5.25 µM; GI50 ([3]; read-out: GI50): 3.48 µM; CC50 [3, 32]: > 100 µM; TGI ([3]; read-out: TGI): > 100 µM; GI50 ([3]; read-out: pGI50 (converted)): 3.47 µM; CC50 [3, 33]: > 100 µM; TGI ([3]; read-out: pTGI (converted)): > 100 µM; growth at 0.01 µM [4]: 90%; growth at 0.01 µM [5]: 96%; growth at 0.01 µM [6]: 87%; growth at 0.01 µM [7]: 102%; GI50 ([8]; read-out: GI50): 5.1 µM; CC50 [8, 32]: > 100 µM; TGI ([8]; read-out: TGI): > 100 µM; GI50 ([8]; read-out: pGI50 (converted)): 5.13 µM; CC50 [8, 33]: > 100 µM; TGI ([8]; read-out: pTGI (converted)): > 100 µM; GI50 ([9]; read-out: GI50): 5.12 µM; CC50 [9, 32]: > 100 µM; TGI ([9]; read-out: TGI): > 100 µM; GI50 ([9]; read-out: pGI50 (converted)): 5.13 µM; CC50 [9, 33]: > 100 µM; TGI ([9]; read-out: pTGI (converted)): > 100 µM; GI50 ([10]; read-out: GI50): 5.89 µM; CC50 [10, 32]: > 100 µM; TGI ([10]; read-out: TGI): > 100 µM; GI50 ([10]; read-out: pGI50 (converted)): 5.89 µM; CC50 [10, 33]: > 100 µM; TGI ([10]; read-out: pTGI (converted)): > 100 µM; GI50 ([11]; read-out: GI50): 1.73 µM; CC50 [11, 32]: 43 µM; TGI ([11]; read-out: TGI): 6.56 µM; GI50 ([11]; read-out: pGI50 (converted)): 1.74 µM; CC50 [11, 33]: 42.7 µM; TGI ([11]; read-out: pTGI (converted)): 6.61 µM; GI50 ([12]; read-out: GI50): 6.75 µM; CC50 [12, 32]: > 100 µM; TGI ([12]; read-out: TGI): > 100 µM; GI50 ([12]; read-out: pGI50 (converted)): 6.76 µM; CC50 [12, 33]: > 100 µM; TGI ([12]; read-out: pTGI (converted)): > 100 µM; growth at 100 µM [13]: 13%; growth at 100 µM [14]: 15%; growth at 100 µM [15]: -35%; growth at 100 µM [16]: 17%; growth at 100 µM [17]: 34%; growth at 100 µM [18]: -4%; growth at 1 µM [19]: 90%; growth at 1 µM [20]: 93%; growth at 1 µM [21]: 84%; growth at 1 µM [22]: 87%; growth at 1 µM [23]: 98%; growth at 1 µM [24]: 80%; growth at 1 µM [25]: 89%; growth at 0.1 µM [26]: 107%; growth at 0.1 µM [27]: 93%; growth at 0.1 µM [28]: 95%; growth at 0.01 µM [29]: 110%; growth at 0.01 µM [30]: 83%; growth at 0.01 µM [31]: 104%
